Test results published in ChEMBL document CHEMBL1201862, “PubChem BioAssay data set” (2004).
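Method: 48-hour compound exposure of cells in 96-well plates, five concentrations, linear interpolation of endpoints. GI50 is the concentration that inhibits growth by half.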 Activity calls are given as the source filed them. Rule as the data show it: active = GI50 up to about 1.1 µM and inactive = higher.

Legend:
Test in all cases: inhibition of tumour cell growth, NCI panel, 48 h
[1] = system: HOP-62
[2] = system: CCRF-CEM
[3] = system: U-251
[4] = system: OVCAR-5
[5] = system: A498
[6] = system: NCI-H226
[7] = system: EKVX
[8] = system: SK-MEL-5
[9] = system: HCC 2998
[10] = system: DLD-1
[11] = system: MOLT-4
[12] = system: NCI-H522
[13] = system: SF-268
[14] = system: HT-29
[15] = system: M14
[16] = system: SF-295
[17] = system: NCI-H460
[18] = system: HOP-92
[19] = system: NCI-H23
[20] = system: SR

| SMILES | GI50 [1] | GI50 [2] | GI50 [3] | GI50 [4] | GI50 [5] | GI50 [6] | GI50 [7] | GI50 [8] | GI50 [9] | GI50 [10] | GI50 [11] | GI50 [12] | GI50 [13] | GI50 [14] | GI50 [15] | GI50 [16] | GI50 [17] | GI50 [18] | GI50 [19] | GI50 [20] |
| --- | --- | --- | --- | --- | --- | --- | --- | --- | --- | --- | --- | --- | --- | --- | --- | --- | --- | --- | --- | --- |
| CCN(CC)CCOC(c1ccccc1)c1ccccc1.CCOC(=O)Nc1ccc(S(=O)(=O)OC)cc1.CCOC(=O)Nc1ccc(S(=O)(=O)OC)cc1.Nc1ccc(C(=O)O)c(O)c1 | > 100 µM (inactive) | > 100 µM (inactive) | > 100 µM (inactive) | > 100 µM (inactive) | > 100 µM (inactive) | > 100 µM (inactive) | > 100 µM (inactive) | > 100 µM (inactive) | > 100 µM (inactive) | > 100 µM (inactive) | > 100 µM (inactive) | > 100 µM (inactive) | > 100 µM (inactive) | > 100 µM (inactive) | > 100 µM (inactive) | > 100 µM (inactive) | > 100 µM (inactive) | > 100 µM (inactive) | > 100 µM (inactive) | – |
| CCCNC(=O)c1cc2ccccc2cc1C(=O)OC | > 100 µM (inactive) | > 100 µM (inactive) | > 100 µM (inactive) | > 100 µM (inactive) | > 100 µM (inactive) | 83.4 µM (inactive) | > 100 µM (inactive) | > 100 µM (inactive) | > 100 µM (inactive) | > 100 µM (inactive) | > 100 µM (inactive) | > 100 µM (inactive) | > 100 µM (inactive) | > 100 µM (inactive) | > 100 µM (inactive) | > 100 µM (inactive) | > 100 µM (inactive) | 59.2 µM (inactive) | > 100 µM (inactive) | – |
| COc1cc(O)c(C(=O)C2Cc3ccccc32)c(OC)c1 (stereo not drawn) | > 100 µM (inactive) | 19.8 µM (inactive) | 64.3 µM (inactive) | 35.7 µM (inactive) | 30 µM (inactive) | 22.6 µM (inactive) | – | 29.6 µM (inactive) | 49.1 µM (inactive) | 46.2 µM (inactive) | 16.9 µM (inactive) | 32.7 µM (inactive) | 67.8 µM (inactive) | 35.3 µM (inactive) | 33.9 µM (inactive) | 86.1 µM (inactive) | 61.8 µM (inactive) | 35.9 µM (inactive) | – | – |
| O=C1OC(CC(=O)c2ccc(Cl)c(Cl)c2)C(Cl)=C1Cl (stereo not drawn) | > 100 µM (inactive) | 20.8 µM (inactive) | > 100 µM (inactive) | > 100 µM (inactive) | 31.2 µM (inactive) | 68.9 µM (inactive) | > 100 µM (inactive) | > 100 µM (inactive) | > 100 µM (inactive) | > 100 µM (inactive) | 38.7 µM (inactive) | 22.5 µM (inactive) | > 100 µM (inactive) | > 100 µM (inactive) | > 100 µM (inactive) | > 100 µM (inactive) | > 100 µM (inactive) | – | > 100 µM (inactive) | – |
| Cc1cc(NS(=O)(=O)c2ccc(NC(=O)c3cccn4c(=O)c5ccccc5nc34)cc2)no1 | > 100 µM (inactive) | > 100 µM (inactive) | > 100 µM (inactive) | – | > 100 µM (inactive) | > 100 µM (inactive) | > 100 µM (inactive) | > 100 µM (inactive) | > 100 µM (inactive) | > 100 µM (inactive) | > 100 µM (inactive) | > 100 µM (inactive) | > 100 µM (inactive) | > 100 µM (inactive) | > 100 µM (inactive) | > 100 µM (inactive) | > 100 µM (inactive) | > 100 µM (inactive) | > 100 µM (inactive) | > 100 µM (inactive) |
| N=C(N)NCCCC(NCc1c2ccccc2[n+]([O-])c2ccccc12)C(=O)O (stereo not drawn) | > 100 µM (inactive) | 24.5 µM (inactive) | 77.4 µM (inactive) | > 100 µM (inactive) | 98.4 µM (inactive) | 35.5 µM (inactive) | > 100 µM (inactive) | 36.4 µM (inactive) | 74.5 µM (inactive) | 38.8 µM (inactive) | 27.1 µM (inactive) | 27 µM (inactive) | 33.8 µM (inactive) | 37.3 µM (inactive) | 85.5 µM (inactive) | > 100 µM (inactive) | 41.6 µM (inactive) | – | 42.2 µM (inactive) | – |
| CCN(CC)C1CC(O[C@H]2C[C@](O)(C(=O)CO)Cc3c(O)c4c(c(O)c32)C(=O)c2c(OC)cccc2C4=O)OC(C)C1O (stereo partly drawn) | 0.0887 µM (active) | 0.122 µM (active) | 0.0509 µM (active) | 0.12 µM (active) | 0.0236 µM (active) | 0.019 µM (active) | 0.082 µM (active) | 0.0508 µM (active) | 0.0948 µM (active) | 0.0395 µM (active) | 0.0225 µM (active) | < 0.0256 µM (active) | 0.047 µM (active) | < 0.0252 µM (active) | 0.0982 µM (active) | 0.0512 µM (active) | < 0.019 µM (active) | 0.0522 µM (active) | 0.0491 µM (active) | – |
| CC(=O)OCc1ncccc1C(OC(C)=O)OC(C)=O | > 100 µM (inactive) | > 100 µM (inactive) | > 100 µM (inactive) | > 100 µM (inactive) | > 100 µM (inactive) | – | > 100 µM (inactive) | > 100 µM (inactive) | – | > 100 µM (inactive) | > 100 µM (inactive) | > 100 µM (inactive) | > 100 µM (inactive) | > 100 µM (inactive) | > 100 µM (inactive) | > 100 µM (inactive) | > 100 µM (inactive) | > 100 µM (inactive) | > 100 µM (inactive) | > 100 µM (inactive) |
| COc1ccc2cc3n(c(=O)c2c1)CCc1c-3cc(OC)c(OC)c1OC | 68.1 µM (inactive) | > 100 µM (inactive) | 50.6 µM (inactive) | > 100 µM (inactive) | – | > 100 µM (inactive) | > 100 µM (inactive) | > 100 µM (inactive) | > 100 µM (inactive) | > 100 µM (inactive) | > 100 µM (inactive) | > 100 µM (inactive) | > 100 µM (inactive) | > 100 µM (inactive) | > 100 µM (inactive) | > 100 µM (inactive) | – | > 100 µM (inactive) | > 100 µM (inactive) | > 100 µM (inactive) |
| CC1CCC2[C@@H](C)COC3O[C@]4(C)CCC1C32OO4 (stereo partly drawn) | > 100 µM (inactive) | 5.15 µM (inactive) | > 100 µM (inactive) | > 100 µM (inactive) | > 100 µM (inactive) | > 100 µM (inactive) | > 100 µM (inactive) | > 100 µM (inactive) | > 100 µM (inactive) | > 100 µM (inactive) | – | > 100 µM (inactive) | > 100 µM (inactive) | > 100 µM (inactive) | > 100 µM (inactive) | > 100 µM (inactive) | > 100 µM (inactive) | > 100 µM (inactive) | > 100 µM (inactive) | – |
| CN(C)CCN1CCc2c([nH]c3ccccc23)C1c1cccnc1 (stereo not drawn) | > 100 µM (inactive) | > 100 µM (inactive) | > 100 µM (inactive) | > 100 µM (inactive) | > 100 µM (inactive) | – | > 100 µM (inactive) | > 100 µM (inactive) | > 100 µM (inactive) | > 100 µM (inactive) | > 100 µM (inactive) | > 100 µM (inactive) | > 100 µM (inactive) | > 100 µM (inactive) | > 100 µM (inactive) | > 100 µM (inactive) | > 100 µM (inactive) | 63.7 µM (inactive) | > 100 µM (inactive) | > 100 µM (inactive) |
| Nn1c(-c2ccccc2Cl)nc2ccccc2c1=O | > 100 µM (inactive) | > 100 µM (inactive) | > 100 µM (inactive) | > 100 µM (inactive) | > 100 µM (inactive) | 57 µM (inactive) | > 100 µM (inactive) | > 100 µM (inactive) | > 100 µM (inactive) | > 100 µM (inactive) | > 100 µM (inactive) | > 100 µM (inactive) | > 100 µM (inactive) | > 100 µM (inactive) | > 100 µM (inactive) | > 100 µM (inactive) | > 100 µM (inactive) | > 100 µM (inactive) | > 100 µM (inactive) | – |
| CC(C)=CCC/C(C)=C/Cc1c(O)ccc2c1[nH]c1cc(O)c(C)cc12 | 7.62 µM (inactive) | 7.55 µM (inactive) | 10 µM (inactive) | > 25 µM (inactive) | – | 15.6 µM (inactive) | – | 16.6 µM (inactive) | 11 µM (inactive) | 14.1 µM (inactive) | 6.07 µM (inactive) | 7.96 µM (inactive) | 10.7 µM (inactive) | > 25 µM (inactive) | 11.8 µM (inactive) | – | 11.9 µM (inactive) | > 25 µM (inactive) | – | 8.13 µM (inactive) |
| CCOC(=O)C(C)Sc1nnc(COc2ccccc2OC)n1-c1ccccc1 (stereo not drawn) | > 100 µM (inactive) | 53.7 µM (inactive) | > 100 µM (inactive) | > 100 µM (inactive) | 0.268 µM (active) | > 100 µM (inactive) | > 100 µM (inactive) | > 100 µM (inactive) | 29.1 µM (inactive) | 37.2 µM (inactive) | – | 42 µM (inactive) | > 100 µM (inactive) | 75.5 µM (inactive) | > 100 µM (inactive) | > 100 µM (inactive) | 18.3 µM (inactive) | 49.1 µM (inactive) | > 100 µM (inactive) | – |
| Cc1ncc(CCl)c2c1OC(C)(C)OC2 | > 100 µM (inactive) | 47.8 µM (inactive) | 14.4 µM (inactive) | 22.3 µM (inactive) | > 100 µM (inactive) | > 100 µM (inactive) | 20.5 µM (inactive) | – | > 100 µM (inactive) | 50.9 µM (inactive) | 42.5 µM (inactive) | 17 µM (inactive) | 22.8 µM (inactive) | 52.2 µM (inactive) | 36.4 µM (inactive) | > 100 µM (inactive) | > 100 µM (inactive) | 32.2 µM (inactive) | > 100 µM (inactive) | – |
